Legend:
3×3 ILL = test: 2DCS selection of microarray-immobilized compounds with 32P-labeled 3×3 ILL, Hit-StARTS analysis of RNA-seq; type: binding; conditions: Zobs >4
Procedure: The interaction landscape for the ten representative DEL compounds emerging from the FACS screen were then defined by 2DCS (22). In 2DCS, small molecules are site-specifically conjugated to a microarray surface and then probed for binding to an RNA library under highly stringent conditions (FIGS. 2-B & S6). That is, the array is co-incubated with a radioactively labeled RNA library and an excess of competitor oligonucleotides that mimic regions common to all library members. […] To enable site-specific immobilization of compounds 1-10, a C-terminal alkyne handle was installed for CuAAC click (30) coupling to azide-displaying array surfaces. Installation of the alkyne was accomplished by coupling of bromoacetic acid onto rink amide resin followed by nucleophilic displacement with propargylamine prior to the synthesis of the SPDEL compounds (FIG. 2A).
All ten compounds bound to the 3×3 ILL under the highly stringent conditions described above, almost all dose-dependently (FIG. 2B). The RNAs bound to each small molecule were harvested, reverse transcribed into DNA, and sequenced by RNA-seq. The resulting data set was statistically analyzed by using High Throughput Structure-Activity Relationships Through Sequencing (Hit-StARTS) (31) in which the relative frequency of each selected RNA is compared to the frequency of that RNA in the starting library (pooled population comparison). (31) The statistical significance of the enrichment of selected RNAs is quantified by Zobs, which correlates with affinity and selectivity. (31) Here, a cut-off of Zobs >4 was employed, which was empirically determined from measured affinities via evaluation of compound 9 binding with potential RNA motifs extracted from the 2DCS (FIGS. 2-B, 13, & 14). […] This cut-off afforded, on average, 60±40 (range: 6-155) preferred, or privileged, RNA 3D folds for each compound. Compound 6 bound to largest number of RNA targets (n=155) while compound 9 bound the fewest (n=6) (FIG. 14). […]

[1] = biological target: 5′GAG/3′CCC loop at pri-miR-27a's Drosha site; test: Binding affinity by microscale thermophoresis (MST), Cy5-labeled RNA; design: species or system human
Procedure: (§1) Binding affinity measurements: Binding affinities were measured by microscale thermophoresis (MST), performed on a Monolith NT.115 system (NanoTemper Technologies) with Cy5-labeled RNAs. These RNAs include: the 5′GAG/3′CCC SEQ ID NO: 16 loop at pri-miR-27a's Drosha site (Sequence:/5′-Cy5/rCrUrGrArGrGrUrGrArArArCrArUrCrCrCrArG SEQ ID NO: 17; Dharmacon), a related internal loop not selected by 9. 5′CAG/3′GCC SEQ ID NO: 17 loop (Sequence:/5′-Cy5/rCrUrCrArGrGrUrGrArArArCrArUrCrCrGrArG SEQ ID NO: 16; Dharmacon), and an RNA in which the loop is mutated to a base pair (Sequence:/5-Cy5/rCrUrGrArGrGrUrGrArArArCrArUrCrUrCrArG SEQ ID NO: 16; Dharmacon).
(§2) Briefly, Cy5-labeled RNA (10 nM) was prepared in 1× Binding Buffer and folded by heating at 60° C. for 5 min and then slowly cooling to room temperature. After cooling, Tween-20 was added to a final concentration of 0.1% (v/v). Compound solutions were prepared separately in 20 μL of 1× Binding Buffer at a final concentration of 5 μM (1% (v/v) DMSO), followed by 1:1 serial dilutions in 1× Binding Buffer. RNA and compound solutions were then mixed 1:1 by volume to a total of 20 μL.
(§3) Samples were incubated for 20 min at room temperature and then loaded into premium capillaries (NanoTemper Tech, Cat #MO-K025). The following parameters were used for MST measurements: 5-20% LED power (adjusted to keep fluorescence intensity between 2000 and 8000), 80% MST power, Laser-On time=30 s, Laser-Off time=25 s. The resulting data were analyzed by calculating the change in thermophoresis as a function of compound concentration and fitted by Equation 1, a one site binding model, in NanoTemper Tech's MST analysis software to yield the dissociation constant (Kd):
(§4) Where F is the concentration of fluorescently labeled RNA; unbound and bound refer to the thermophoresis signal at completely unbound and bound state of RNA, respectively; c is the concentration of the compound; f (c) is the thermophoresis signal at compound concentration of c; and Kd is the dissociation constant.

[2] = test system: fully paired RNA (loop mutated to a base pair); test: Binding affinity by MST, Cy5-labeled fully paired RNA
Procedure: as §1, §2, §3, §4

5′CAG/3′GCC loop = test: Binding affinity by MST, Cy5-labeled mutated loop RNA; design: species or system human; conditions: mutated loop 5′CAG/3′GCC
Procedure: as §1
Briefly, Cy5-labeled RNA (10 nM) was prepared in 1× Binding Buffer and folded by heating at 60° C. for 5 min and then slowly cooling to room temperature. […]
as §3, with “(Kd): […]” for “(Kd):”

pri-miR-27a = test: RT-qPCR of pri- and mature miR-27a in MDA-MB-231 TNBC cells; type: cell-based, human; conditions: MDA-MB-231, RT-qPCR
Procedure: Cell lines. Compounds were tested in MDA-MB-231 TNBC cells (HTB-26, ATCC), LNCaP metastatic prostate cancer cells (gifted from Junli Luo lab), MCF-7 (HTB-22, ATCC) breast cancer cells, HeLa cervical adenocarcinoma cells (CCL-2, ATCC), and MCF-10a, a model of healthy breast epithelial cells (CRL-10317, ATCC).
Cell culture and compound treatment. All cells were maintained at 37° C. with 5% CO2. MDA-MB-231 and LNCaP cells were cultured in RPMI 1640 medium with L-glutamine & 25 mM HEPES (Corning) supplemented with 10% (v/v) fetal bovine serum (FBS; Sigma) and 1× (v/v) Antibiotic-Antimycotic solution (Corning). MCF-7 and HeLa cells were cultured in DMEM medium with 4.5 g/L glucose (Corning), supplemented with 10% FBS, 1× (v/v) Glutagro (Corning), and 1× (v/v) Antibiotic-Antimycotic solution. MCF10a cells were cultured in DMEM/F12 50/50 with L-glutamine & 15 mM HEPES (Corning), supplemented with 10% FBS, 20 ng/mL human epidermal growth factor (Pepro Tech Inc.), […] hydrocortisone (Pfaltz & Bauer), 100 ng/mL cholera toxin (Sigma-Aldrich), 10 μg/mL insulin (Sigma-Aldrich), and 1× (v/v) Antibiotic-Antimycotic solution.
MCF-10a cells were transfected with plasmids to express pri-miR-27a and mutant pri-miR-27a in 12- or 24-well plates with Lipofectamine 2000 per the manufacturer's protocol. For treatment of compounds, stocks were diluted in growth medium and added to cells for 48 h. The miRCURY miR-27a LNA inhibitor (QIAGEN, Cat #339121) was used as a positive control by diluting in growth medium to a final concentration of 1 nM. The miRCURY LNA Negative Control (QIAGEN, Cat #YI00199007-DDA) was used as a negative control, which has also diluted in growth medium to a final concentration of 1 nM.
Analysis of mRNA abundance: Each cell line was grown as a monolayer in 12- or 24-well plates and treated as described in “Cell culture and compound treatment”. After 48 h, the cells were lysed, and total RNA was harvested using a Zymo Quick RNA Miniprep Kit per the manufacturer's protocol. To measure the abundance of mature miRNAs, approximately 250 ng of total RNA was reverse transcribed using the High Flex Buffer provided in a miScript II RT Kit (Qiagen) per the manufacturer's protocol (10 μL total reaction volume). For pri-miRNAs and mRNA, approximately 300 ng of total RNA was reverse transcribed using a qScript cDNA synthesis kit (10 μL total reaction volume, Quanta BioSciences). For all types of RNAs, 2 μL of the RT reaction was used for qPCR using SYBR Green Master Mix and a QuantStudio™ 5 Real-Time PCR System. Relative abundance of mature miRNAs was calculated by normalizing to RNU6, and relative abundance for pri-miRNAs and mRNAs was calculated by normalizing to 18S ribosomal RNA, using the […]. (12)

Question: How did the “number of RNA motifs bound that are unique to the compound” value (3×3 ILL) turn out when `C#CCN(CC(N)=O)C(=O)C(CC(C)C)N1CC[C@H](NC(=O)[C@@H]2C[C@H](N)CN2C(=O)c2c[nH]c3ccc(Cl)cc23)C1=O` (some centres unmarked) [Compound 3] was run?
Answer: 41

Question: How did the “number of RNA motifs bound that are unique to the compound” value (3×3 ILL) turn out when `C#CCN(CC(N)=O)C(=O)C(CC(C)C)N1CC[C@H](NC(=O)[C@@H]2C[C@@H](N)CN2C(=O)c2c[nH]c3ccc(Cl)cc23)C1=O` (some centres unmarked) [Compound 4] was run?
Answer: 2

Question: `C#CCN(CC(N)=O)C(=O)C1CCN1C(=O)C1CC(N)CN1C(=O)c1ccccc1C(=O)N1CCOCC1` (centres unmarked) [Compound 5] was tested. Which Kd [1] did it give?
Answer: 700 ± 100 nM

Question: What about the saturable binding [2] of the same compound?
Answer: Saturable binding was not observed

Question: Which binding [1] does the source give for `C#CCN(CC(N)=O)C(=O)C[C@H](Cc1c[nH]c2ccccc12)NC(=O)[C@@H]1C[C@@H](NC(=O)Cn2c(=O)[nH]c3ccccc3c2=O)CN1` [Compound 10] here?
Answer: binds to none of the three RNAs

Question: And the binding (5′CAG/3′GCC loop)?
Answer: binds to none of the three RNAs

Question: And the “inhibition of miR-27a (comparison of 5, 7, 9, 10)” value (pri-miR-27a)?
Answer: inactive

Question: What about the saturable binding [2] of the same compound?
Answer: binds to none of the three RNAs

From patent US20250051762A1, “PLATFORM USING DNA-ENCODED SMALL MOLECULE LIBRARIES AND RNA SELECTION TO DESIGN SMALL MOLECULES THAT TARGET RNA” (University of Florida Research Foundation, Incorporated, priority 2021, published 2025)
